The results in this text go back to patent US12509451B2, “Heteroaryl amide inhibitors of CD38” (NAPA THERAPEUTICS LTD., priority 2020, dated 2025).

The IC50 is the concentration needed to halve the response being measured.

Each structure is given as a SMILES string.

Assay [1] concerns the target T1, CD38 NAD+ hydrolase activity in NH7-dCas9 cells (Jurkat clone) (Homo sapiens, UniProt P28907).
T1 construct: The assay utilized CD38 expressing NH7-dCas9 cells (Jurkat clone); host or cells: NH7-dCas9 cells (Jurkat clone)
T1 sequence (P28907 1-300): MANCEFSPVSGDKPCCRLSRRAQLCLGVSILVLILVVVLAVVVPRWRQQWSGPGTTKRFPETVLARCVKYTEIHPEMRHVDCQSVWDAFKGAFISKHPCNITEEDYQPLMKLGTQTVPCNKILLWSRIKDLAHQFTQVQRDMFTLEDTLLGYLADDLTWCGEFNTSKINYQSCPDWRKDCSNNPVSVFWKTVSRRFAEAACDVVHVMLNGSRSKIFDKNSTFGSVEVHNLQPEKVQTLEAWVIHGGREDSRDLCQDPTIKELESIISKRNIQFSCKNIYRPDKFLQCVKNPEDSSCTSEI
Briefly: Fluorescence-based NAD+ hydrolase activity assay with human T cell line NH7-dCas9 cells-Jurkat clone (Assay 1). The settings on record: read-out: Assay 1 Arithmetic mean IC50. The procedure: For the modified assay, the performance validation criteria of the assay as a High Throughput Screening (HTS): Z-factor within the plate was greater than 0.89 (optimal HTS z-factor >0.5) and the Intra-plate, inter-plate and day to day variability (CV) was less than 20%.
NAD+ hydrolase activity of a human T cell line treated with test compounds was measured using a fluorescence-based assay. NH7-dCas9 cells (Jurkat clone) were provided by the Weissman Lab (UCSF 1700 4th St., Byers Hall, Room 403B, San Francisco, CA 94158-2330). Briefly, cells were centrifuged, resuspended in 44 μl PBS/10^6 cells and plated in a 96 well black plate (CORNING) at a density of 1×10^6 per well.
(§1) Each test compound was received in a powder state and dissolved in DMSO as a 25 mM stock solution. Each test compound was serially diluted in order to generate a dose-response curve. The dilution series of each test compound in DMSO was prepared at 50 times the concentrations to be assayed. Each test compound was diluted to generate a 5-fold dilution series of 8 concentrations from 20 μM to 0.256 nM in order to assay 8 final concentrations ranging from 400 nM to 25.6 pM. One μl of the 50× concentration compound series was added to each well of the plate containing 1×10^6 cells in PBS.
Each plate had the following intra plate controls: 3 wells containing cells treated with vehicle only (DMSO), 3 wells of cells treated with the reference compound 78c at a final concentration of 50 nM and 2 wells containing only PBS (used as a background value).
The reaction was started by adding nicotinamide 1,N^6-etheno-adenine dinucleotide (Sigma Aldrich) to reach a final concentration of 80 µM. The samples were excited at 321-15 nm, and the emission of fluorescence was measured at 410-20 nm at 37° C. every minute for 1 hr in a Clariostar® microplate reader (BMG LABTECH). NAD+ hydrolase activity was calculated as the slope of the linear portion of the fluorescence-time curve using the MARS data analysis software (BMG LABTECH). The data were uploaded in the Collaborative Drug Design (CDD) Software and for each compound the IC50 was calculated by the software. Each compound was tested in 3 independent experiments on 3 separate days to establish the reproducibility of the results. For each plate, the z-factor was also calculated as a plate quality using the CDD software.

In assay [2] the target is T2, recombinant human CD38 Protein (Homo sapiens, UniProt P28907).
T2 construct: purchased R&D System
T2 sequence (P28907 1-300): T1 sequence (P28907 1-300)
Briefly: Fluorescence-based NAD+ cyclase activity assay with human recombinant CD38 protein (Assay 2). The conditions noted are these: read-out: Assay 2 Arithmetic mean IC50. Type of assay: biochemical. The procedure:
This protocol was modified from the de Oliveira et al., 2018 reference, supra.
NAD+ cyclase activity of the human recombinant CD38 protein treated with test compounds was measured using a fluorescence-based assay. Briefly, recombinant human CD38 Protein (R&D System) was resuspended in 44 μl/well of Sucrose-Tris Buffer (Sucrose 0.25 M, Tris pH 7.4 40 mM) and plated in a 96-well black plate (CORNING) at a density of 125 ng/well.
as §1, with “100” for “20”, “32” for “0.256”, “2 μM” for “400 nM”, “0.64 nM.” for “25.6 pM.”, “125 ng of protein” for “1×10^6 cells”, “Sucrose-Tris buffer.” for “PBS.”
The reaction was started adding nicotinamide guanine dinucleotide (NGD+) (Sigma Aldrich) to reach a final concentration of 150 µM. The samples were excited at 337-15 nm, and the emission of fluorescence was measured at 442-20 nm at 37° C. every minute for 1 hr in a Clariostar microplate reader (BMG LABTECH). NAD+ cyclase activity was calculated as the slope of the linear portion of the fluorescence-time curve using the MARS data analysis software (BMG LABTECH). The data were uploaded in the Collaborative Drug Design (CDD) Software, and for each compound the IC50 was calculated by the software. For each plate, the z-factor was also calculated as a plate quality using the CDD software.

Regarding `CNC(=O)c1ccc(NC(=O)c2cccc(-n3ccnc3)n2)cn1` [Compound 2], the IC50 in assay [1] is < 1 nM; in assay [2] it was 1 to 50 nM. In the same order, the values of `NC(=O)c1ccc(NC(=O)c2cccc(-n3ccnc3)n2)cn1` [Compound 3] are < 1 nM and 1 to 50 nM. In the same order, the values of `Cc1cc(NC(=O)c2cccc(-n3ccnc3)n2)cc(C)n1` [Compound 7] are < 1 nM and 1000 to 10000 nM. Regarding `O=C(Nc1ccnc(F)c1)c1cccc(-n2ccnc2)n1` [Compound 8], the values for the IC50 in assay [1] and in assay [2] were < 1 nM and 51 to 1000 nM, respectively. For `O=C(Nc1ccc(C(F)(F)F)nc1)c1cccc(-n2ccnc2)n1` [Compound 9], the results for the 50% inhibitory concentration (IC50) in assay [1] and in assay [2] were 1 to 50 nM and 51 to 1000 nM, respectively. Turning to `Cc1cc(NC(=O)c2cccc(-n3ccnc3)n2)ccn1` [Compound 11], the IC50 fell in the range of 1 to 50 nM in assay [1] and 51 to 1000 nM in assay [2]. Regarding `COc1cc(NC(=O)c2cccc(-n3ccnc3)n2)ccn1` [Compound 12], the IC50 in assay [1] fell in the range of 1 to 50 nM; in assay [2], 51 to 1000 nM. In the case of `O=C(Nc1ccncc1)c1cccc(-n2ccnc2)n1` [Compound 13], the IC50 is 1 to 50 nM in assay [1] and 51 to 1000 nM in assay [2]. As for `Cc1ccc(NC(=O)c2cccc(-n3ccnc3)n2)cn1` [Compound 14], the IC50 in assay [1] lay in the range of 1 to 50 nM; in assay [2] it was 1000 to 10000 nM. Take `CC(=O)N(C)c1ccc(NC(=O)c2cccc(-n3ccnc3)n2)cn1` [Compound 15]: the IC50 fell in the range of 1 to 50 nM in assay [1] and 1000 to 10000 nM in assay [2]. As to `CC(=O)Nc1ccc(NC(=O)c2cccc(-n3ccnc3)n2)cn1` [Compound 16], the 50% inhibitory concentration (IC50) in assay [1] is 1 to 50 nM; in assay [2], 51 to 1000 nM.

On to `COc1ccc(NC(=O)c2cccc(-n3ccnc3)n2)cn1` [Compound 18], for which the results for the IC50 in assay [1] and in assay [2] were 1 to 50 nM and 1000 to 10000 nM, respectively. On to `O=C(Nc1cccnc1)c1cccc(-n2ccnc2)n1` [Compound 20], for which the IC50 lay within 1 to 50 nM in assay [1] and 1000 to 10000 nM in assay [2]. For the compound `O=C(Nc1ccc(F)nc1)c1cccc(-n2ccnc2)n1` [Compound 22], the results for the IC50 in assay [1] and in assay [2] were 1 to 50 nM and 1000 to 10000 nM, respectively. Consider `O=C(Nc1ccncn1)c1cccc(-n2ccnc2)n1` [Compound 24], for which the values for the IC50 in assay [1] and in assay [2] were 1 to 50 nM and 1000 to 10000 nM, respectively. Consider `COC(=O)c1ccc(NC(=O)c2cccc(-n3ccnc3)n2)cn1` [Compound 27], for which the IC50 in assay [1] fell in the range of 1 to 50 nM; in assay [2] it was 51 to 1000 nM. Consider `O=C(Nc1ccnc(C(F)(F)F)c1)c1cccc(-n2ccnc2)n1` [Compound 28], for which the IC50 was < 1 nM in assay [1] and 1000 to 10000 nM in assay [2]. Regarding `O=C(Nc1ccnc(C(F)(F)F)c1)c1cc(OCc2ccccc2)cc(-n2ccnc2)n1` [Compound 29, 4-(benzyloxy)-6-(1H-imidazol-1-yl)-N-[2-(trifluoromethyl)pyridin-4-yl]pyridine-2-carboxamide], the IC50 is < 1 nM in assay [1] and 51 to 1000 nM in assay [2]. For `O=C(Nc1ccnc(C(F)(F)F)c1)c1cc(OCC2CCOCC2)cc(-n2ccnc2)n1` [Compound 30, 6-(1H-imidazol-1-yl)-4-((tetrahydro-2H-pyran-4-yl)methoxy)-N-(2-(trifluoromethyl)pyridin-4-yl)picolinamide], the values for the IC50 in assay [1] and in assay [2] were < 1 nM and 51 to 1000 nM, respectively.

`COCCOc1cc(C(=O)Nc2ccnc(C(F)(F)F)c2)nc(-n2ccnc2)c1` [Compound 31, 6-(1H-imidazol-1-yl)-4-(2-methoxyethoxy)-N-(2-(trifluoromethyl)pyridin-4-yl)picolinamide]: the IC50 in assay [1] was < 1 nM; in assay [2] it was 51 to 1000 nM. As for `O=C(Nc1ccnc(C(F)(F)F)c1)c1cc(OC2CC2)cc(-n2ccnc2)n1` [Compound 32, 4-cyclopropoxy-6-(1H-imidazol-1-yl)-N-(2-(trifluoromethyl)pyridin-4-yl)picolinamide], the IC50 is < 1 nM in assay [1] and 51 to 1000 nM in assay [2]. For the compound `CN(C)CCOc1cc(C(=O)Nc2ccnc(C(F)(F)F)c2)nc(-n2ccnc2)c1` [Compound 33], the 50% inhibitory concentration (IC50) in assay [1] is < 1 nM; in assay [2] it was 51 to 1000 nM. In the case of `CC1(Oc2cc(C(=O)Nc3ccnc(C(F)(F)F)c3)nc(-n3ccnc3)c2)COC1` [Compound 34, 6-(1H-imidazol-1-yl)-4-((3-methyloxetan-3-yl)oxy)-N-(2-(trifluoromethyl)pyridin-4-yl)picolinamide], the IC50 in assay [2] lay within 51 to 1000 nM. For the compound `COc1cc(C(=O)Nc2ccnc(C(F)(F)F)c2)nc(-n2ccnc2)c1` [Compound 35, 6-(1H-imidazol-1-yl)-4-methoxy-N-(2-(trifluoromethyl)pyridin-4-yl)picolinamide], the concentration for half-maximal inhibition (IC50) was < 1 nM in assay [1] and 51 to 1000 nM in assay [2]. Take `COc1cc(C(=O)Nc2cccnc2)nc(-n2ccnc2)c1` [Compound 36]: the figures for the IC50 in assay [1] and in assay [2] were 1 to 50 nM and 51 to 1000 nM, respectively.

For `COc1cc(C(=O)Nc2ccnc(C(F)(F)F)c2)nc(-n2ccnc2)n1` [Compound 37, 2-(1H-imidazol-1-yl)-6-methoxy-N-(2-(trifluoromethyl)pyridin-4-yl)pyrimidine-4-carboxamide], the IC50 in assay [1] is < 1 nM; in assay [2] it was 51 to 1000 nM. For the compound `CCOc1cc(C(=O)Nc2ccnc(C(F)(F)F)c2)nc(-n2ccnc2)n1` [Compound 38], the IC50 is < 1 nM in assay [1] and 51 to 1000 nM in assay [2]. In the case of `COCCOc1cc(C(=O)Nc2ccnc(C(F)(F)F)c2)nc(-n2ccnc2)n1` [Compound 39, 2-(1H-imidazol-1-yl)-6-(2-methoxyethoxy)-N-(2-(trifluoromethyl)pyridin-4-yl)pyrimidine-4-carboxamide], the IC50 in assay [1] was < 1 nM; in assay [2], 1 to 50 nM. For `O=C(Nc1ccnc(C(F)(F)F)c1)c1cc(OC2CC2)nc(-n2ccnc2)n1` [Compound 40], the IC50 in assay [2] was 51 to 1000 nM. As to `Cn1cncc1-c1cccc(C(=O)Nc2cccnc2)n1` [Compound 42, 6-(1-methyl-1H-imidazol-5-yl)-N-(pyridin-3-yl)picolinamide], the IC50 lay in the range of 1 to 50 nM in assay [1] and 1000 to 10000 nM in assay [2]. `Cn1cncc1-c1cccc(C(=O)Nc2ccc(C(F)(F)F)nc2)n1` [Compound 43]: the IC50 is < 1 nM in assay [1] and 51 to 1000 nM in assay [2]. For `Cc1cc(C(=O)Nc2ccncc2)nc(-c2nccn2C)c1` [Compound 45], the IC50 in assay [1] is < 1 nM; in assay [2], 51 to 1000 nM.

For `Cn1ccnc1-c1cccc(C(=O)Nc2ccc(C(F)(F)F)nc2)n1` [Compound 47], the figures for the IC50 in assay [1] and in assay [2] were < 1 nM and 51 to 1000 nM, respectively.

`Cn1ccnc1-c1cccc(C(=O)Nc2cccnc2)n1` [Compound 48]: the results for the IC50 in assay [1] and in assay [2] were 1 to 50 nM and 1000 to 10000 nM, respectively. For `O=C(Nc1ccnc(C(F)(F)F)c1)c1cc(C2CC2)nc(-n2ccnc2)n1` [Compound 51, 6-cyclopropyl-2-(1H-imidazol-1-yl)-N-(2-(trifluoromethyl)pyridin-4-yl)pyrimidine-4-carboxamide], in assay [2], the IC50 was in the range of 51 to 1000 nM.
